The subject of the experiment is rats subjected to regional myocardial ischaemia and reperfusion. Kind of experiment: Regional myocardial ischaemia and reperfusion, artesunate and dihydroartemisinin. The format is in vivo, Wistar rats. Here is the method: Rats were anaesthetised with thiopentone sodium (Intraval® 120 mg/kg i.p.). Anaesthesia was maintained by supplementary injections of thiopentone sodium as required. The trachea was cannulated and the animals were ventilated with a Harvard ventilator (inspiratory oxygen concentration: 30%; 70 strokes/min, tidal volume: 8-10 ml/kg). Body temperature was maintained at 37±1° C. with the aid of a rectal probe thermometer attached to a homeothermic blanket unit (Harvard Apparatus Ltd., Edenbridge, Kent. U.K.). […] The right jugular vein was then cannulated for the administration of drugs and saline. A para-sternal thoracotomy was then performed, using an Electrosurgery device to cauterize the intercostals arteries before cutting through three ribs. The chest was retracted and pericardium dissected from the heart. The left anterior descending (LAD) coronary artery was isolated and a snare occluder was placed around the LAD. The retractor was then removed and the animal was allowed to stabilise for 15 min.
The occluder was tightened at time 0. After 25 min of LAD-occlusion, the occluder was released to allow reperfusion of the previously ischemic myocardium (2 h). Haemodynamic parameters were continuously monitored. Baseline readings were taken prior to treatment, and, myocardial ischaemia reperfusion (IR) injury. The pressure rate index (PRI), a relative indicator of myocardial oxygen consumption was calculated as a product of the MAP (mmHg) and HR (beats/minute-bpm) and expressed in mm Hg bpm×10^−3.
At the end of the 2 h reperfusion period, the LAD was re-occluded and 1 ml of Evans Blue dye (2% w/v) was injected into the animal, via the jugular vein. The Evans Blue dye stains the tissue it can circulate through, therefore the non-perfused vascular (occluded) tissue remains un-coloured. Each animal was killed with an over-dose of anaesthetic, the heart excised, and excess dye washed off. […] The ischaemic and non-ischaemic tissue was weighed, and the AAR expressed as a percentage of the left ventricle. The tissue from the AAR was cut into small pieces and incubated with p-nitroblue tetrazolium (NBT, 0.5 mg/ml) for 30 min at 37° C. NBT is a reducing agent that reacts with dehydrogenases present in viable (non-infarcted) tissue to produce a dark blue formazan. Infarcted tissue (non-viable) will not have dehydrogenase activity and will therefore fail to stain. The stained tissue was separated from the infarcted tissue, weighed, and the infarct size expressed as a percentage of the AAR.
Sham-operated rats were subjected to surgical procedure without myocardial ischaemia and reperfusion.

[1] abbreviates: bolus 0.1 mg/kg upon reperfusion, P>0.05 vs Control.

Structures are written as SMILES.

For the compound `C[C@@H]1CC[C@H]2[C@@H](C)C(O)O[C@H]3O[C@@]4(C)CC[C@@H]1[C@]32OO4` (stereo partly drawn) [dihydroartemisinin, (3R,5aS,6R,8aS,9R,12S,12aR)-decahydro-3,6,9-trimethyl-3,12-epoxy-12H-pyrano[4,3-j]-1,2-benzodioxepin-10-ol], the “infarct size (percentage of the AAR)” value (0.1 mg/kg i.v. bolus upon reperfusion, from 59.8±3.2, P<0.05) was 46.5±1.3%. Under “0.1 mg/kg i.v. upon reperfusion, vs control”, the Infarct size reduction was 40%. The area at risk entry (0.1 mg/kg, compared to vehicle treated rats) was “no significant effect”. Under setting [1], the “fall in mean arterial blood pressure caused by myocardial ischaemia and reperfusion” value is reported as “did not attenuate”; the heart rate result was “did not have a significant effect”.

The values are drawn from patent US9949948B2, “Artemisinin and its derivatives for use in the treatment of trauma haemorrhage and associated conditions” (Queen Mary University of London, priority 2011, dated 2018).
